What was measured:
[1] = Stability in Simulated Intestinal Fluid (SIF); format: in vitro ADME; set-up: key: % parent compound remaining relative to 0-minute sample
Method: (§1) Simulated gastric fluid (SGF) and Simulated intestinal fluid (SIF) stability are in vitro metrics indicating the ability of a compound to pass through the gastrointestinal tract […] or completely digested. An undigested or nearly undigested compound will usually survive gut transit long enough to be absorbed into the systemic circulation. Greater than 50% remaining intact compound at 1 hour indicates a relatively stable molecule that will likely be absorbed in the gut.
(§2) For each test compound, samples at a final concentration of 2 μg/mL are prepared in respective blank simulated gastric fluid with pepsin (pH 1.2) and simulated intestinal fluid with pancreatin (pH 6.8). All samples are incubated at 37° C. on a 150-rpm orbital shaker, and an aliquot is removed at predetermined time points (0 to 60 minutes). Samples are precipitated with three volumes of acetonitrile containing propranolol as internal standard, and centrifuged for 10 min at 2,000 g before LC-MS/MS analysis of the supernatant solutions. Percent parent compound remaining is determined relative to 0-minute incubation samples. If a sufficient number of time points are available, the degradation half-life is calculated based on the natural log of % compound remaining vs. time plot.

[2] = Caco-2 Permeability Assay; format: in vitro ADME, human; conditions: human
Text: The compounds of the invention may be tested for biological activity as MPO inhibitors by methods known to those skilled in the art. In addition, methods such as, for example, a Caco-2 assay, may be used to test the bioavailability of the compounds of the invention. A description of a Caco-2 permeability assay is as follows:
• The Caco-2 monolayer is widely used across the pharmaceutical industry as an in vitro model of the human small intestinal mucosa to predict the absorption of orally administered drugs.^1-4 • The Caco-2 cell model mimics processes such as transcellular transport, paracellular transport, and some aspects of efflux and active transport. • Readout: Papp (A→B), Papp (B→A), Efflux ratio, % Recovery • Controls: with and without Pgp inhibitor; Atenolol, Propanolol, Taxel-1
The Caco-2 cells are cultured to confluency, trypsinized and seeded onto a filter transwell insert at a density of ^˜32,000 cells/well in DMEM cell culture medium. Cells are grown in a humidified atmosphere of 5% CO2 at 37° C. Following an overnight attachment period (24 h after seeding), the cell medium is replaced with fresh medium in both the apical and basolateral compartments every other day. The cell monolayers are used for transport studies 21 days post seeding after measuring the TEER values ([…]). The apical sides and basolateral sides are washed consecutively with HBSS 2.5% (v/v), HEPES (pH 7.4) or HBSS 2.5% (v/v), HEPES 10% (v/v), and Fetal Bovine Serum (pH 7.4) at 37° C. in an incubator under an atmosphere of 5% CO2.
Donor working solution is prepared by dilution of DMSO stock of test article or positive control with transport media to 10 μM.
For A→B directional transport, the donor working solution (with test article or positive control, with or without Pgp inhibitor) is added to the apical (A) compartment and the transport media as receiver working solution is added to the basolateral (B) compartment. For B→A directional transport, the donor working solution (with positive control or test article, with or without Pgp inhibitor) is added to the basolateral (B) compartment and transport media as receiver working solution is added to the apical (A) compartment.
The cells are incubated in a humidified atmosphere of 5% CO2 at 37° C. for 90 minutes.
At the end of the incubation, samples are taken from both donor and receiver compartments and transferred into 96-well assay plates containing internal standard solution (IS) in each well. After centrifugation, the supernatant solutions are transferred to clean 96 well plates and analyzed by LC-MS/MS. The MS detection is performed using a Sciex API 4000 instrument. Each compound is analyzed by reversed phase HPLC.
The parameters Papp (apparent permeability) and efflux ratio are calculated as follows:
Papp=(dQ/dt)×(1/C0)×(1/A)
Efflux ratio=Papp[B→A]/Papp[A→B]
where dQ/dt is the permeability rate, C0 is the initial concentration in the donor compartment, and A is the surface area of the cell monolayer (0.33 cm^2). The Papp value is a rate measured in cm/s. Calculated Papp is ranked as low (<[…]), moderate (1-10×10^−6 cm/s), and high (>[…]).
Comparing the efflux ratios generated in the presence and absence of a Pgp inhibitor identifies whether the test article is a Pgp substrate.
Recovery is calculated as follows:
% Recovery=(Total compound mass in donor and receiver compartments at the end of the incubation/Initial compound mass in the donor compartment)×100.

Plasma Stability = format: in vitro ADME, human
Method: Plasma stability estimates the ability of a compound to remain intact in the blood. For prodrugs that are intended to be hydrolyzed by plasma enzymes a certain level of instability in plasma indicates the compound is probably breaking down to the parent drug. A stability range of 25-75% remaining parent compound after 1 hour in plasma indicates the compound is likely breaking down to the parent drug molecule and a patient will be exposed to this parent molecule.
Assessment of plasma stability was carried out by individual incubations of drug candidates in fresh human plasma at a concentration of 1 μM for 1 hour at 37° C. After which, the samples were de-proteinized by addition of 2 volumes of acetonitrile containing 0.1% formic acid and internal standard, vortex mixed for 2 minutes and centrifuged at 4,000 rpm for 10 minutes to pellet precipitated protein. The resulting supernatant containing the drug candidates was diluted 5-fold with water containing 0.1% formic acid and submitted to LCMS/MS analysis. All determinations were done in triplicate. Plasma stability was expressed as percent of control remaining.
See Pelletier et al. ACS Med. Chem. Lett. 2018, 9, 752-756.

[3] = Stability in Simulated Gastric Fluid (SGF); format: in vitro ADME; set-up: key: % parent compound remaining relative to 0-minute sample
Method: as §1, §2

[4] = % remaining at 1 h, SIF with pancreatin pH 6.8, 2 μg/mL, 37° C.
[5] = Caco-2, pH 7.4, donor 10 μM, 90 minutes, 37° C., direction not given
[6] = % remaining at 1 h, human plasma, 1 μM, 37° C.
[7] = % remaining at 1 h, SGF with pepsin pH 1.2, 2 μg/mL, 37° C.
[8] = % remaining at 1 h in simulated intestinal fluid
[9] = Caco-2, pH 7.4, Caco-2 monolayer
[10] = % remaining at 1 h in human plasma
[11] = % remaining at 1 h in simulated gastric fluid

SMILES | SIF [1, 4] [%] | Papp at 90 min, 10 µM [2, 5] [nm/s] | human Plasma stability (Plasma Stability; [6]) [%] | SGF [3, 7] [%] | SIF [1, 8] [% remaining] | Papp at 90 min, 10 µM [2, 9] [nm/s] | human Plasma stability (Plasma Stability; [10]) [% remaining] | SGF [3, 11]
CC(C)OCCn1c(=S)[nH]c(=O)c2c1ccn2COC(=O)[C@@H]1CCCN1C(=O)OC(C)(C)C [Example 1, (S)-tert-Butyl (1,2,3,4-tetrahydro-1-(2-isopropoxyethyl)-4-oxo-2-thioxopyrrolo[3,2-d]pyrimidin-5-yl)methyl pyrrolidine-1,2-dicarboxylate] | 94 | 371 | 92 | 99 | – | – | – | –
CC(C)OCCn1c(=S)[nH]c(=O)c2c1ccn2COC(=O)[C@@H]1CCC(=O)N1C(=O)OCc1ccccc1 [Example 4, 1-benzyl 2-{4-oxo-1-[2-(propan-2-yloxy)ethyl]-2-sulfanylidene-1H,2H,3H,4H,5H-pyrrolo[3,2-d]pyrimidin-5-yl}methyl (2S)-5-oxopyrrolidine-1,2-dicarboxylate] | 94 | 134 | 40 | 97 | – | – | – | –
CC(C)OCCn1c(=S)[nH]c(=O)c2c1ccn2COC(=O)CCNC(=O)OC(C)(C)C [Example 6, {4-Oxo-1-[2-(propan-2-yloxy)ethyl]-2-sulfanylidene-1H,2H,3H,4H,5H-pyrrolo[3,2-d]pyrimidin-5-yl}methyl 3-{[(tert-butoxy)carbonyl]amino}propanoate] | 67 | 179 | 59 | 82 | – | – | – | –
CC(C)OCCn1c(=S)[nH]c(=O)c2c1ccn2COC(=O)CCCCNC(=O)OC(C)(C)C [Example 7, {4-oxo-1-[2-(propan-2-yloxy)ethyl]-2-sulfanylidene-1H,2H,3H,4H,5H-pyrrolo[3,2-d]pyrimidin-5-yl}methyl 5-{[(tert-butoxy)carbonyl]amino}pentanoate] | 40 | 147 | 4 | 66 | – | – | – | –
CC(C)OCCn1c(=S)[nH]c(=O)c2c1ccn2COC(=O)CCN [Example 8, Trifluoroacetic acid {4-oxo-1-[2-(propan-2-yloxy)ethyl]-2-sulfanylidene-1H,2H,3H,4H,5H-pyrrolo[3,2-d]pyrimidin-5-yl}methyl 3-aminopropanoate] | 68 | 4.6 | 45 | 97 | – | – | – | –
CC(C)OCCn1c(=S)[nH]c(=O)c2c1ccn2COC(=O)CCNC(=O)CNC(=O)OC(C)(C)C [Example 9, {4-Oxo-1-[2-(propan-2-yloxy)ethyl]-2-sulfanylidene-1H,2H,3H,4H,5H-pyrrolo[3,2-d]pyrimidin-5-yl}methyl 3-(2-{[(tert-butoxy)carbonyl]amino}acetamido)propanoate] | 61 | 15.3 | 52 | 100 | – | – | – | –
CC(C)OCCn1c(=S)[nH]c(=O)c2c1ccn2COC(=O)CCCCNC(=O)[C@@H](NC(=O)OC(C)(C)C)C(C)C [Example 10, {4-oxo-1-[2-(propan-2-yloxy)-ethyl]-2-sulfanylidene-1H,2H,3H,4H,5H-pyrrolo[3,2-d]pyrimidin-5-yl}methyl5-[(2S)-2-{[(tert-butoxy)carbonyl]amino}-3-methylbutanamido]pentanoate] | 76 | 48.7 | 72 | 81 | – | – | – | –
CC(C)OCCn1c(=S)[nH]c(=O)c2c1ccn2COC(=O)CCNC(=O)[C@@H](NC(=O)OC(C)(C)C)C(C)C [Example 11, {4-oxo-1-[2-(propan-2-yloxy)-ethyl]-2-sulfanylidene-1H,2H,3H,4H,5H-pyrrolo[3,2-d]pyrimidin-5-yl}methyl3-[(2S)-2-{[(tert-butoxy)carbonyl]amino}-3-methylbutanamido]propanoate] | 69 | 14.4 | 99 | 74 | – | – | – | –
CC(C)OCCn1c(=S)[nH]c(=O)c2c1ccn2COC(=O)CCCCNC(=O)[C@@H](N)C(C)C [Example 12, Trifluoroacetic acid {4-oxo-1-[2-(propan-2-yloxy)ethyl]-2-sulfanylidene-1H,2H,3H,4H,5H-pyrrolo[3,2-d]pyrimidin-5-yl}methyl 5-[(2S)-2-amino-3-methylbutanamido]pentanoate] | 94 | 4 | 76 | 100 | – | – | – | –
CC(C)OCCn1c(=S)[nH]c(=O)c2c1ccn2COC(=O)CCCCNC(=O)CNC(=O)OC(C)(C)C [Example 13] | – | – | – | – | 94 | 18.8 | 1 | 96% remaining
CC(C)OCCn1c(=S)[nH]c(=O)c2c1ccn2COC(=O)CCNC(=O)[C@@H](N)C(C)C.O=C(O)C(F)(F)F [Example 14] | – | – | – | – | 84 | < 2.03 | 55 | 95% remaining
CC(C)OCCn1c(=S)[nH]c(=O)c2c1ccn2COC(=O)CCCCNC(=O)[C@H](CCc1ccccc1)NC(=O)OC(C)(C)C.O=C(O)C(F)(F)F [Example 18] | – | – | – | – | 65 | 75.9 | 66 | 100%
CC(C)OCCn1c(=S)[nH]c(=O)c2c1ccn2COC(=O)CCNC(=O)[C@H](CCc1ccccc1)NC(=O)OC(C)(C)C.O=C(O)C(F)(F)F [Example 19] | – | – | – | – | 57 | 117 | 42 | 82% remaining
CSCC[C@H](NC(=O)OCC1c2ccccc2-c2ccccc21)C(=O)NCCCCC(=O)OCn1ccc2c1c(=O)[nH]c(=S)n2CCOC(C)C.O=C(O)C(F)(F)F [Example 20] | – | – | – | – | 76 | 9.85 | 64 | 80% remaining
CC(C)OCCn1c(SCOC(=O)C(C)(C)C)nc(=O)c2c1ccn2COC(=O)C(C)(C)C [Example 144] | – | – | – | – | – | 51.1 | – | –
CC(C)OCCn1c(SCOC(=O)c2ccccc2)nc(=O)c2c1ccn2COC(=O)c1ccccc1.O=C(O)C(F)(F)F [Example 158] | – | – | – | – | – | 53.7 | – | –
